Laboratory results taken from the NIST ThermoML archive (doi:10.1016/j.jct.2012.05.007).
± gives the expanded uncertainty stated by the source.

Conditions: Liquid, Falling or rolling sphere viscometry

Compound | viscosity (313.15 K, 10000 kPa) | viscosity (313.15 K, 15000 kPa) | viscosity (313.15 K, 25000 kPa) | viscosity (313.15 K, 50000 kPa) | viscosity (313.15 K, 75000 kPa) | viscosity (313.15 K, 100000 kPa) | viscosity (313.15 K, 125000 kPa) | viscosity (313.15 K, 150000 kPa) | viscosity (343.15 K, 10000 kPa) | viscosity (343.15 K, 15000 kPa) | viscosity (343.15 K, 25000 kPa) | viscosity (343.15 K, 50000 kPa) | viscosity (343.15 K, 75000 kPa) | viscosity (343.15 K, 100000 kPa) | viscosity (343.15 K, 125000 kPa) | viscosity (343.15 K, 150000 kPa) | viscosity (363.15 K, 10000 kPa) | viscosity (363.15 K, 15000 kPa) | viscosity (363.15 K, 25000 kPa) | viscosity (363.15 K, 50000 kPa) | other results
CCCC[N+]1(C)CCCC1.O=S(=O)([N-]S(=O)(=O)C(F)(F)F)C(F)(F)F | 46.5 ± 4.8 mPa·s | 49.5 ± 5.1 mPa·s | 55.9 ± 5.7 mPa·s | 74.8 ± 7.7 mPa·s | 98.8 ± 10 mPa·s | 129.4 ± 14 mPa·s | 168.4 ± 18 mPa·s | 218 ± 24 mPa·s | 18.2 ± 2 mPa·s | 19.1 ± 2.1 mPa·s | 21.1 ± 2.3 mPa·s | 26.6 ± 2.9 mPa·s | 33.6 ± 3.7 mPa·s | 42.1 ± 4.7 mPa·s | 52.8 ± 6 mPa·s | 66.3 ± 7.6 mPa·s | 12.2 ± 1.3 mPa·s | 12.8 ± 1.3 mPa·s | 14.1 ± 1.5 mPa·s | 17.7 ± 1.8 mPa·s | viscosity (363.15 K, 75000 kPa): 21.9 ± 2.3 mPa·s; viscosity (363.15 K, 100000 kPa): 26.7 ± 2.8 mPa·s; viscosity (363.15 K, 125000 kPa): 32.2 ± 3.4 mPa·s; viscosity (363.15 K, 150000 kPa): 38.7 ± 4.1 mPa·s
COCC[N+]1(C)CCCC1.O=S(=O)([N-]S(=O)(=O)C(F)(F)F)C(F)(F)F | 33.3 ± 3.4 mPa·s | 35.3 ± 3.6 mPa·s | 39.5 ± 4 mPa·s | 52 ± 5.3 mPa·s | 67.5 ± 6.9 mPa·s | 86.9 ± 9 mPa·s | 111.2 ± 12 mPa·s | 141.5 ± 15 mPa·s | 14.8 ± 1.6 mPa·s | 15.5 ± 1.6 mPa·s | 17 ± 1.8 mPa·s | 21.2 ± 2.3 mPa·s | 26.2 ± 2.8 mPa·s | 32.3 ± 3.5 mPa·s | 39.6 ± 4.4 mPa·s | 48.5 ± 5.4 mPa·s | 10.2 ± 1.1 mPa·s | 10.7 ± 1.1 mPa·s | 11.6 ± 1.2 mPa·s | 14.3 ± 1.5 mPa·s | viscosity (363.15 K, 75000 kPa): 17.5 ± 1.8 mPa·s; viscosity (363.15 K, 100000 kPa): 21.2 ± 2.2 mPa·s; viscosity (363.15 K, 125000 kPa): 25.5 ± 2.7 mPa·s; viscosity (363.15 K, 150000 kPa): 30.5 ± 3.2 mPa·s
CCOS(=O)(=O)[O-].CCn1cc[n+](C)c1 [1-ethyl-3-methylimidazolium ethyl sulfate] | 54.3 ± 5.6 mPa·s | 56.4 ± 5.8 mPa·s | 60.9 ± 6.3 mPa·s | 73.6 ± 7.6 mPa·s | 88.6 ± 9.2 mPa·s | 106.6 ± 11 mPa·s | 128.1 ± 14 mPa·s | 153.8 ± 17 mPa·s | 20.2 ± 2.2 mPa·s | 20.9 ± 2.3 mPa·s | 22.3 ± 2.4 mPa·s | 26.1 ± 2.9 mPa·s | 30.3 ± 3.4 mPa·s | 35 ± 3.9 mPa·s | 40.2 ± 4.6 mPa·s | 46.1 ± 5.3 mPa·s | 13.2 ± 1.4 mPa·s | 13.6 ± 1.4 mPa·s | 14.5 ± 1.5 mPa·s | 16.8 ± 1.8 mPa·s | viscosity (363.15 K, 75000 kPa): 19.2 ± 2 mPa·s; viscosity (363.15 K, 100000 kPa): 22 ± 2.3 mPa·s; viscosity (363.15 K, 125000 kPa): 25 ± 2.6 mPa·s; viscosity (363.15 K, 150000 kPa): 28.2 ± 3 mPa·s
